Measurements published in patent US20060147992A1, “Method for detection of bioactive peptides” (priority 2002, published 2006).

System: platelets
Test: luminometric determination of collagen-induced ATP release from platelets
Assay type: cell-based
Conditions: platelet rich plasma, 2 μg/ml collagen, RGDS 30 μM; p<0.002 versus collagen alone
From the text: Miniaturised (96 well format) high-throughput screening assays capable of assessing platelet activation that are suitable for screening potential anti-thrombotic agents have been developed. The primary assay is based on the phenomenon that platelet activation results in a substantial release of ATP from dense granules. Released ATP is then rapidly quantitated in a plate reader using bioluminescence and is proportional to the extent of platelet activation.
Platelet rich plasma was stimulated by automated injection of 2 μg/ml collagen in the presence or absence of commercially available RGDS (30 μM). Relative light output was then measured automatically in a BMG Fluostar plate reader.
Fibrinogen was digested with either Lys-C (A) or trypsin (B) prior to fractionation as described in FIGS. 2 and 3.

Q: RGDS was tested. Which “inhibition of collagen-induced ATP release” value did it give?
A: Its value is 30%.
